Assay results: patent publication US10969382B2, “Systems and methods for assessing data collected from an electrically active cell culture” (Axion BioSystems, Inc., priority 2015, dated 2021)
“Also recorded” adds a separate entry of the source.

Test system: cardiomyocyte culture
Experiment: Global conduction velocity (GCV) of beat propagation measured on a microelectrode array
Type: cell-based
Settings: increasing flecainide concentration; FIG. 8C
Description: example, within 30 ms). FIG. 6A is a representation of an array of electrodes 22 of an exemplary well of a MEA 20 having electrodes 22 spaced 200 μm from one another in the vertical and horizontal directions. It is to be appreciated that the number of electrodes 22 and the spacing shown in FIG. 6A are for example purposes only and greater or fewer electrodes 22 can be used and the spacing can also differ from what is shown. […] The beat timestamps, or arrival times, on the neighboring beat receiving electrodes can be used to generate a data array of delay times, as shown in Table 1. […] For the exemplary beat shown in Table 1, the beat starting electrode 30 is represented by the data point in column 1, row 2. The delay time (tdi) at each electrode 22 is the difference between the beat arrival time (ti) on that particular beat receiving electrode 22 and the beat start time, to, at the beat starting electrode 30. tdi=ti−t0 The velocity at which a beat propagates through the cellular network, or the conduction velocity, is a useful parameter for assessing a cardiomyocyte culture. However, the conduction velocity can vary depending upon the location within the cell culture, and thus it is another example of a parameter that is subject to spatial variability. […]

## O=C(NCC1CCCCN1)c1cc(OCC(F)(F)F)ccc1OCC(F)(F)F (stereo not shown) [flecainide]
  conduction velocity using the GCV method: systematically reduced; also recorded: slows
